Assay results taken from patent US20080026996A1, “Selective Vpac2 Receptor Reptide Agonists” (ELI LILLY AND COMPANY, priority 2004, published 2008).
pEC50: −log10 of the molar value. Where no end group is shown, it is not given here. The star is where a group is joined. Hexanoyl = CCCCCC(=O)*

Columns and labels:
rat PAC1 receptor [1] = target: T1, rat PAC1 receptor (Rattus norvegicus, UniProt P32215); assay: Adenylate cyclase assay on recombinant rat PAC1 receptor expressed in CHO cells; assay type: biochemical
T1 construct: expressed in transfected cells; host or cells: CHO cells, crude membranes
T1 sequence (P32215 20-523): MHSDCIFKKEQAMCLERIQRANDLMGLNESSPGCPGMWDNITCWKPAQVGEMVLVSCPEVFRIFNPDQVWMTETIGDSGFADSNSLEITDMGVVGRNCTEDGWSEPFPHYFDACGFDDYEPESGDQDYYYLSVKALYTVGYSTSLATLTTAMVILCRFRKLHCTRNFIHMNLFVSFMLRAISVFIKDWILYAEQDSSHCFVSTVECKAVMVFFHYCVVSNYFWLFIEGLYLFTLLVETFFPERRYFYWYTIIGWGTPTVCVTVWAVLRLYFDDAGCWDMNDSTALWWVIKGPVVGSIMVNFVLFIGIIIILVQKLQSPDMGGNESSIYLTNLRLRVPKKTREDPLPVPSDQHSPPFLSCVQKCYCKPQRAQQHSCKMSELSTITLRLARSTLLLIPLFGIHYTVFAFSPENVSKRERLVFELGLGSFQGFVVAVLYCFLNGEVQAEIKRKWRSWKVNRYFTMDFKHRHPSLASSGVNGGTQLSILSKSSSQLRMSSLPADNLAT

[2] = Pharmacokinetic assay: active peptide levels in rat plasma after IV injection
Experimental: An IVGTT with glucose is given immediately after T=0 to 6 animals per condition. Samples are taken at 0, 2, 4, 6, and 10 minutes after injection.
For cell handling, Plate 50,000 cells/well and keep in culture over night. Wash cell twice in PBS and add 50 μl/well stimulation medium consisting of PBS+1.2 MgCl2, 1.3 CaCl2, 2 glucose and 0.5 IBMX. Incubate 15 minutes and add 50 μl/well of the plasma samples (see layout below). Incubate 30 minutes, remove the supernatant and proceed as normal with the DiscoveRx assay. Prepare plates in duplicate. Protease and peptidase inhibitor are present in all plasma samples.

rat PAC1 receptor [3] = target: T1, rat PAC1 receptor; assay: Binding on recombinant rat PAC1 receptor expressed in CHO cells; details: maximal concentration tested 10 μM peptide
Experimental: All studies are performed on crude membranes prepared from three different cell cultures expressing the different recombinant receptors, using methodology that is known in the literature. Duplicate values are obtained for each assay.

human VPAC2 = target: T2, human VPAC2 (Homo sapiens, UniProt P41587); assay: DiscoveRx cAMP in vitro potency, CHO-S cell line stably expressing human VPAC2 receptor; assay type: cell-based; details: cAMP generation; mean of two independent runs
T2 construct: expressed in transfected cells
T2 sequence (P41587 24-438): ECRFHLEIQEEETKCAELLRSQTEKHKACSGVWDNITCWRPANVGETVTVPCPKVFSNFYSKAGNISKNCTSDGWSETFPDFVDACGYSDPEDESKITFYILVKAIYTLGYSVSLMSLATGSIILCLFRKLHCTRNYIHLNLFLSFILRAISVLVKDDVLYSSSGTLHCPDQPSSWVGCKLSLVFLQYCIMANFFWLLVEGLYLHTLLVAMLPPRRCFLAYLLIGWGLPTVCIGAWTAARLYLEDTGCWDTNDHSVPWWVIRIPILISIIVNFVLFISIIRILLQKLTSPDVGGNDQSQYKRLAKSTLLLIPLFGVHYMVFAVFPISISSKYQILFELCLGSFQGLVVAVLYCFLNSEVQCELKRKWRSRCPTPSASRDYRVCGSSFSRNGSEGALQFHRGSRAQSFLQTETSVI
Experimental: Also, the cells are washed twice. The cells are incubated in assay buffer plus IBMX for 15 minutes at room temperature. […] The stimuli are present for 30 minutes. Then, the assay buffer is gently removed. […] At day 3, the assay described above for the VPAC2 receptor cell line is performed.

rat VPAC1 receptor = target: T3, rat VPAC1 receptor (Rattus norvegicus, UniProt P30083); assay: DiscoveRx in vitro potency, CHO-PO cells transiently transfected with rat VPAC 1 receptor DNA; assay type: cell-based; set-up: expressed in transfected cells; host or cells: CHO-PO, transient
T3 sequence (P30083 31-459): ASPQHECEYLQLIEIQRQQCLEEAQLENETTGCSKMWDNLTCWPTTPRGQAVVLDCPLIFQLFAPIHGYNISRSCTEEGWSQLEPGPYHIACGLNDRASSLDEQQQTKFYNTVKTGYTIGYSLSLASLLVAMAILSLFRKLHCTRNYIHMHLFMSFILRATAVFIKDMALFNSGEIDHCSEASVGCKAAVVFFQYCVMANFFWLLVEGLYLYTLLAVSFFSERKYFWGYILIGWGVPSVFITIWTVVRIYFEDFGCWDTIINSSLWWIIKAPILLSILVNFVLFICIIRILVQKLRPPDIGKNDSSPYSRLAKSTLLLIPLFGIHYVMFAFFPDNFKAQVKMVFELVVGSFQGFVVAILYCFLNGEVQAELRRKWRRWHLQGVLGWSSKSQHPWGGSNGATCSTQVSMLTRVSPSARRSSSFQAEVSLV
Experimental: Also, the cells are washed twice. […] The stimuli are present for 30 minutes. Then, the assay buffer is gently removed.

Normal Wistar rats = assay: Delayed IVGTT; assay type: in vivo, rat; details: 10 μg/kg iv, glucose 30 minutes later
Experimental: Delayed IVGTT: Perform IVGTT as described above, making the following changes. After the initial blood sample, compound or vehicle is injected i.v. Glucose is injected i.v. 30 minutes later in a separate injection. Blood samples are taken immediately prior to administration of the compound, at 15 minutes after administration of the compound, and at 30 minutes after administration of the compound. The sample at 30 minutes after administration of the compound is taken immediately prior to glucose administration. Blood samples are drawn 2, 4, 6, 10, and 30 minutes after giving glucose (i.e. 32, 34, 36, 40 and 60 minutes after compound administration). The blood samples at 15 and 60 minutes are not essential to the study and not always taken. Aprotinin is added to the blood sample (250 kIU/ml blood). The serum is then analyzed for glucose and insulin using standard methodologies.
The assay uses a formulated and calibrated peptide stock in PBS. Normally, this stock is a prediluted 100 μM stock. However, a more concentrated stock with approximately 1 mg agonist per mL is used. The specific concentration is always known.

conscious Wistar rats = assay: Oral glucose tolerance test (OGTT); assay type: in vivo, rat; details: for Effects on glucose, AUC(0-135 min) / Effects on insulin, AUC(0-75 min): OGTT (15 min)
Experimental: Oral Glucose Tolerance Test (OGTT):
The effect of a selective VPAC2 receptor peptide agonist (P31) on plasma insulin and glucose is evaluated during OGTT in conscious Wistar rats. The maximal dose of agonist is 10 μg/kg. Since the peptide is given intravenously and has a very short half-life, a delay between glucose and compound administrations is applied.

[4] = Wistar, rat, plasma, iv, 10 ug/kg

With “H-MHSDAVFTDNYTRLRKQVAAKKYLQSIKNKRYGGPSSGAPPPS [Agonist P104]” the “potency ratio compared to PACAP-27” value (rat PAC1 receptor [1]) was over 1000, the AUC(0-t) [2, 4] was 0.355 nM·h and the Cmax [2, 4] was 3.19 nM. The half-life [2, 4] was 2.35 min, the “Exposure (10 μg/kg); clearance in μg/(min * nM * kg)” value ([2]; rat plasma, 10 μg/kg i.v.) was 0.87 µg/min/nM/kg and the “Exposure (10 μg/kg, Vdist in μg/(nM * kg))” value ([2]; rat plasma, 10 μg/kg i.v.) was 2.64 µg/nM/kg. The “binding (tracer displacement)” value (rat PAC1 receptor [3]) was “incomplete tracer displacement”.

For “Hexanoyl-HSDAVFTDNYTRLLAKLALQKYLQSIKNKRYGGPSSGAPPPS [Agonist P119]”, the pEC50 (human VPAC2) was 9.47, the pEC50 (rat VPAC1 receptor) was 10.15 and the “binding (tracer displacement)” value (rat PAC1 receptor [3]) was “incomplete tracer displacement”.

In the case of “Hexanoyl-HSDAVFTDNYTRLRKQVAAKKYLQSIKNKRYGGPSSGAPPPS [Agonist P31]”, the pEC50 (human VPAC2) was 9.96, the Effects on glucose (Normal Wistar rats) was “None” and the “Effects on insulin, AUC(0-10 min)” value (Normal Wistar rats) was “+91% AUC(0-10 min)”. For the same substance, the pEC50 (rat VPAC1 receptor) was 9.36, the “binding (tracer displacement)” value (rat PAC1 receptor [3]) was “incomplete tracer displacement” and the “Effects on glucose, AUC(0-135 min)” value (conscious Wistar rats; #1, 10 μg/kg iv) was −22% AUC(0-135 min). For the same substance, the “Effects on insulin, AUC(0-75 min)” value (conscious Wistar rats; #1, 10 μg/kg iv) was “+71% AUC(0-75 min)”, the “Effects on glucose, AUC(0-135 min)” value (conscious Wistar rats; #2, 0.5 μg/kg iv) was −5% AUC(0-135 min) and the “Effects on insulin, AUC(0-75 min)” value (conscious Wistar rats; #2, 0.5 μg/kg iv) was “+16% AUC(0-75 min)”. The “Effects on glucose, AUC(0-135 min)” value (conscious Wistar rats; #2, 10 μg/kg iv) was −2% AUC(0-135 min), the “Effects on insulin, AUC(0-75 min)” value (conscious Wistar rats; #2, 10 μg/kg iv) was “+17% AUC(0-75 min)” and the “Effects on insulin, AUC(0-90 min)” value (conscious Wistar rats; OGTT (30 min), 10 μg/kg iv) was “+85% AUC(0-90 min)”. For the same substance, the “Effects on glucose, AUC(0-150 min)” value (conscious Wistar rats; OGTT (30 min), 10 μg/kg iv, (NS)) was −1% AUC(0-150 min).
